Data set [1] relates to K-562. Nature of the data set: LDH release (cell membrane integrity), K-562. The format is cell-based. As to conditions: Homo sapiens, K562, 4 h, read-out: LDH (% of total). Here is the method: FIGS. 6A and 6B depict cell viability and growth rates for K562 cell line following taurolidine treatment, in terms of % trypan blue negative cells and % cell number, respectively. Cells were treated with various concentrations of taurolidine for 4 hours in AIM-V+0.01% BCS. After aliquots were collected for LDH assay, the remainder of the culture was rinsed in HBSS and resuspended in RPMI+10% BCS without taurolidine. Counts of trypan blue-negative cells (FIG. 6A), and total cell number (FIG. 6B), were recorded daily thereafter (with the measurement at Day 1 being made immediately after the 4 hour taurolidine treatment). Conditions were: no treatment (open circles); 25 μg/ml taurolidine (closed circles); 50 μg/ml taurolidine (open squares); 100 μg/ml taurolidine (closed squares); and vehicle alone (closed triangles). Doubling times were determined under each condition, and expressed as a percentage of the rate of doubling of untreated cells. […]
In these experiments, integrity of cell membranes following taurolidine treatment was assessed by exclusion of trypan blue and by measuring the release of LDH in MM6, K-562, HL-60, and REH cells. […] A parallel aliquot of cells was lysed by three cycles of freeze/thaw and the quantity of LDH released was taken to be 100%. […]
^a LDH was measured immediately after four hour taurolidine treatment.

Data set [2] has as its system HL-60. Nature of the data set: growth rate after taurolidine treatment, HL-60. The format is cell-based, human. Here is the method:
FIGS. 7A and 7B depict cell viability and growth rates for HL-60 cell line following taurolidine treatment, in terms of % trypan blue negative cells and % cell number, respectively. Cells were treated with various concentrations of taurolidine for 4 hours in AIM-V+0.01% BCS. After aliquots were collected for LDH assay, the remainder of the culture was rinsed in HBSS and resuspended in RPMI+10% BCS without taurolidine. Counts of trypan blue-negative cells (FIG. 7A), and total cell number (FIG. 7B), were recorded daily thereafter (with the measurement at Day 1 being made immediately after the 4 hour taurolidine treatment). Conditions were: no treatment (open circles); 25 μg/ml taurolidine (closed circles); 50 μg/ml taurolidine (open squares); 100 μg/ml taurolidine (closed squares); and vehicle alone (closed triangles). Doubling times were determined under each condition, and expressed as a percentage of the rate of doubling of untreated cells. These values are located to the right of the growth curves in (FIG. 7B). Cells were subcultured when they reached a concentration of 6×10^5 cells/ml. Data are mean±SEM of three experiments.
In these experiments, integrity of cell membranes following taurolidine treatment was assessed by exclusion of trypan blue and by measuring the release of LDH in MM6, K-562, HL-60, and REH cells. Since BCS contains significant amounts of LDH, these experiments were conducted on cells cultured in AIM-V+0.01% BCS. […] A parallel aliquot of cells was lysed by three cycles of freeze/thaw and the quantity of LDH released was taken to be 100%. […]
HL-60 cells treated with 50 μl taurolidine. In these samples, LDH present in the culture medium was 8.3±2.3% of that released by completely lysed cells, compared with 2.3±0.8% measured in control cultures. […] After 4 hour treatment, cells were rinsed and returned to growth medium and monitored for viability and growth over the following 3 days. […]
^b Growth rate was measured over three days following treatment.

Data set [3] deals with K562. Nature of the data set: TUNEL / propidium iodide flow cytometry, K562. The format is cell-based, human. The note with it: taurolidine 100 μg/ml or anisomycin 1 μg/ml for 4 h, assayed at 24 hours, mean ± SD. Here is the method: In the second method, DNA fragmentation was detected via TUNEL assay according to the manufacturer's instructions. With this methodology, 2×10^6 cells were fixed with 2% paraformaldehyde, permeabilized with 0.1% Triton X-100/0.1% citrate, incubated at 37° C. with terminal deoxynucleotidyl transferase and FITC-dUTP, rinsed and analyzed by flow cytometry. Enhanced FITC signal indicates apoptosis-specific DNA fragmentation. Gavriali, et al, "Identification of programmed cell death in situ via specific labeling of nuclear DNA fragmentation," J Cell Biol 119:493 (1992). Parallel aliquots of unfixed cells were treated with PI and FITC-conjugated anti-CD14 and analyzed by flow cytometry, in order to identify cells with permeable cell membranes (since PI binds to DNA but is excluded from cells with intact plasma membranes) and also to determine the cell-specificity of the apoptotic signal.
(§1) In another study, TUNEL assays were performed on all cell lines 6 hours after cells were initially exposed to taurolidine (cells were treated for 4 hours, rinsed, and then incubated for 2 more hours before TUNEL assay was performed).
. Taurolidine and anisomycin induced apoptosis in MM6, HL-60, and Jurkat cells (Table VIII). MM6 and HL-60 cells were similarly effected, with >80% TUNEL-positive cells after 6 hours. Jurkat cells were less sensitive, with approximately 50% of cells induced to undergo apoptosis after taurolidine treatment. After 6 hours, 73% of anisomycin-treated REH cells were apoptotic, with less than 20% of taurolidine-treated REH cells being TUNEL-positive. However, assay of cells 24 hours after
^a Analysis by flow cytometry after staining cells with propidium
iodide and processing for TUNEL.
Data are percent of total cell-size events, and are expressed as mean ±
Cells were treated for 4 hours with taurolidine (100 μg/ml) or
anisomycin (1 μg/ml), and then assayed at 6 hours.
Data are percent of total cell-sized events, and are expressed as mean ±
anisomycin (1 μg/ml), and then assayed at 24 hours.

The subject of data set [4] is ECV304. Nature of the data set: subcellular-sized events by flow cytometry, ECV304. It is filed as cell-based, human. The note with it: ECV304, after taurolidine treatment. The procedure: Less than 0.1% of ECV304 or GM5387 cells were TUNEL-positive 6 hours after treatment with taurolidine or anisomycin (Table VIII). Therefore, neither of these agents induce rapid DNA fragmentation in these cell types. However, there was approximately a 70% increase in the number of subcellular-sized events recorded by flow cytometry after taurolidine treatment of these cells, indicating some effect of taurolidine on cell integrity. These cell fragments were not stained by propidium iodide, consistent with them being apoptotic bodies.
On the technique in general: In flow cytometry, cells or beads pass a laser one at a time.

Data set [5] deals with all cells tested. Nature of the data set: apoptogenic efficiency in all cells tested. It is filed as cell-based, human. The procedure: as §1
. Taurolidine and anisomycin induced apoptosis in MM6, HL-60, and Jurkat cells (Table VIII). MM6 and HL-60 cells were similarly effected, with >80% TUNEL-positive cells after 6 hours. Jurkat cells were less sensitive, with approximately 50% of cells induced to undergo apoptosis after taurolidine treatment. After 6 hours, 73% of anisomycin-treated REH cells were apoptotic, with less than 20% of taurolidine-treated REH cells being TUNEL-positive. However, assay of cells 24 hours after […]

The conditions of data set [6]: septic patients, up to 20 grams for 2-5 consecutive days; cited from earlier work.

`O=S1(=O)CCN(CN2CCS(=O)(=O)NC2)CN1` [taurolidine, 4,4'-methylenebis(perhydro-1,2,4-thiadiazin 1,1-dioxide)]: the cytotoxicity at 50 µg/mL in data set [1] (K-562, 50 μg/ml) came out at 6%. In addition, in data set [1] (K-562, 100 μg/ml), the cytotoxicity at 100 µg/mL came out at 8%. The “sensitivity of cell growth among cell lines” value in data set [2] (HL-60) is “most inhibited”. Further, in data set [2] (Homo sapiens, 72 h, HL-60, 50 μg/ml for 4 h, growth over three days, read-out: growth rate (% of control)), the activity at 50 µg/mL amounted to 0%. Further, in data set [2] (Homo sapiens, 72 h, HL-60, 100 μg/ml for 4 h, growth over three days, read-out: growth rate (% of control)), the activity at 100 µg/mL was 3%. Also, the “% TUNEL-positive” value in data set [3] is reported as “approximately 20%”. Moreover, the “increase in the number of subcellular-sized events” value in data set [4] is roughly 70%. In data set [5], the “apoptogenic efficiency versus anisomycin” value is on record as “as efficient an apoptogenic agent as the protein synthesis inhibitor anisomycin”. Besides, the toxicity in humans entry in data set [6] was “has not been associated with toxicity”.
